Experimental data reported in ChEMBL document CHEMBL4177617 (Bioorg Med Chem Lett, 2017).
pIC50: −log10 of the molar value.

Test system: Clostridium botulinum
Experiment: Inhibition of protease activity of Clostridium botulinum BoNT/A light chain using 66-mer SNAP-25 as substrate by LC-MS analysis relative to control
Conditions: concentration not given here; call rule not given here

Compound | inhibition
O=C(/C=C/c1ccc(O)c(O)c1)Oc1ccccc1OC(=O)/C=C/c1ccc(O)c(O)c1 | 96%
O=C(/C=C/c1ccc(O)c(O)c1)OC[C@@H]1C[C@@H]1COC(=O)/C=C/c1ccc(O)c(O)c1 | 75%
O=C(/C=C/c1ccc(O)c(O)c1)O[C@@H](C(=O)O)[C@@H](OC(=O)/C=C/c1ccc(O)c(O)c1)C(=O)O | 64%

Test system: not listed separately
Experiment: Inhibition of protease activity of Clostridium botulinum BoNT/A light chain using 66-mer SNAP-25 as substrate by LC-MS analysis
Conditions: not given

Compound | IC50
O=C(/C=C/c1ccc([N+](=O)[O-])cc1)Oc1ccccc1OC(=O)/C=C/c1ccc([N+](=O)[O-])cc1 | Not Active
O=C(/C=C/c1ccc(CO)cc1)Oc1ccccc1OC(=O)/C=C/c1ccc(CO)cc1 | Not Active
NCCc1ccc(OC(=O)c2ccc(O)c(O)c2)c(OC(=O)c2ccc(O)c(O)c2)c1 | Not Active
O=Cc1ccc(/C=C/C(=O)Oc2ccccc2OC(=O)/C=C/c2ccc(C=O)cc2)cc1 | Not Active
CC(=O)Oc1ccc(/C=C/C(=O)Oc2ccccc2OC(=O)/C=C/c2ccc(OC(C)=O)c(OC(C)=O)c2)cc1OC(C)=O | Not Active

Same assay, conditions: read-out: IC50

Compound | pIC50
O=C(/C=C/c1ccc(O)c(O)c1)O[C@H]1CCC[C@H]1OC(=O)/C=C/c1ccc(O)c(O)c1 | 5.62
O=C(/C=C/c1ccc(O)c(O)c1)OCc1ccccc1COC(=O)/C=C/c1ccc(O)c(O)c1 | 5.96
O=C(/C=C/c1ccc(O)c(O)c1)OC/C=C\COC(=O)/C=C/c1ccc(O)c(O)c1 | 6.35
O=C(/C=C/c1ccc(O)c(O)c1)OC[C@H]1CC[C@H]1COC(=O)/C=C/c1ccc(O)c(O)c1 | 5.77
O=C(/C=C/c1ccc(O)c(O)c1)OCC#CCOC(=O)/C=C/c1ccc(O)c(O)c1 | 6.39
O=C(/C=C/c1cccc(O)c1)Oc1ccccc1OC(=O)/C=C/c1cccc(O)c1 | < 4.70
O=C(Oc1ccccc1OC(=O)c1ccc(O)cc1)c1ccc(O)cc1 | 5.02
O=C(Oc1ccccc1OC(=O)c1ccc(O)c(O)c1)c1ccc(O)c(O)c1 | < 4.70
O=C(/C=C/c1ccc(O)c(O)c1)Oc1cccc2cccc(OC(=O)/C=C/c3ccc(O)c(O)c3)c12 | 7.30
O=C(/C=C/c1ccc(O)c(O)c1)Oc1ccccc1OC(=O)/C=C/c1ccc(O)c(O)c1 | 6.31
O=C(/C=C/c1ccc(O)c(O)c1)O[C@@H]1CCCCC[C@H]1OC(=O)/C=C/c1ccc(O)c(O)c1 | 5.49
O=C(/C=C/c1ccc(O)c(O)c1)OC[C@@H]1C[C@@H]1COC(=O)/C=C/c1ccc(O)c(O)c1 | 6.89
COC(=O)c1ccc(OC(=O)/C=C/c2ccc(O)c(O)c2)c(OC(=O)/C=C/c2ccc(O)c(O)c2)c1 | 6.41
O=C(/C=C/c1ccc(O)c(O)c1)O[C@H]1CCCC[C@H]1OC(=O)/C=C/c1ccc(O)c(O)c1 | 5.49
CC(C)OC(=O)[C@H](OC(=O)/C=C/c1ccc(O)c(O)c1)[C@@H](OC(=O)/C=C/c1ccc(O)c(O)c1)C(=O)OC(C)C | 5.57
O=C(/C=C/c1ccc(O)c(O)c1)Oc1cc2c(cc1OC(=O)/C=C/c1ccc(O)c(O)c1)OCCO2 | 6.52
CC(C)(C)C(COC(=O)/C=C/c1ccc(O)c(O)c1)COC(=O)/C=C/c1ccc(O)c(O)c1 | 6.89
O=C(/C=C/c1ccc(O)c(O)c1)OCc1ccccc1OC(=O)/C=C/c1ccc(O)c(O)c1 | 6.85
O=C(/C=C/c1ccc(O)c(O)c1)Oc1cccc(OC(=O)/C=C/c2ccc(O)c(O)c2)c1 | 6.25
O=C(/C=C/c1ccc(O)c(O)c1)Nc1ccccc1NC(=O)/C=C/c1ccc(O)c(O)c1 | 5.48
